The text below walks through data of ChEMBL document CHEMBL3217454, “Structureactivity relationship studies using peptide arrays: the example of HIV-1 Revintegrase interaction” (Medchemcomm, 2013).

Assay [1] concerns Human immunodeficiency virus 1. Nature of the assay: Binding affinity to HLT-tagged HIV-1 Rev measured after overnight incubation by chemiluminescence analysis relative to IN 174-188. Details: concentration or dose not given beside the values.
Assay [2] deals with Human immunodeficiency virus type 1 integrase (Human immunodeficiency virus 1) (UniProt Q7ZJM1). Nature of the assay: Binding affinity to HIV-1 integrase measured after overnight incubation by chemiluminescence analysis relative to IN 174-188. Details: concentration or dose not given beside the values.

Each structure is given as a SMILES string. Square brackets hold non-standard residues; d marks the D form. Peptide text beside a SMILES is read from it. NMeF = CN[C@@H](Cc1ccccc1)C(=O)O; NMeI = CC[C@H](C)[C@H](NC)C(=O)O; NMeM = CN[C@@H](CCSC)C(=O)O; NMeV = CN[C@H](C(=O)O)C(C)C; NMeA = CN[C@@H](C)C(=O)O

Sequence of Human immunodeficiency virus type 1 integrase (Human immunodeficiency virus 1) (Q7ZJM1 as listed by the source): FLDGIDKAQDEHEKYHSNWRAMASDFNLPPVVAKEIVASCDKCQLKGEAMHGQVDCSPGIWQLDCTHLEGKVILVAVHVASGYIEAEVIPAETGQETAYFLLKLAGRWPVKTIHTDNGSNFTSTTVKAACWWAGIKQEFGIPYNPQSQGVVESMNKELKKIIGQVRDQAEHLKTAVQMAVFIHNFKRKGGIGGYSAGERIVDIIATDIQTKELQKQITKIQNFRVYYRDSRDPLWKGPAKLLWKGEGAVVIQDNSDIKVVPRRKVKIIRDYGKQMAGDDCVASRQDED

Regarding `CC[C@H](C)[C@H](NC(=O)[C@H](Cc1ccccc1)NC(=O)[C@@H](NC(=O)[C@H](C)NC(=O)[C@H](CCSC)NC(=O)[C@H](CCC(N)=O)NC(=O)[C@@H](NC(=O)[C@H](C)NC(=O)[C@@H](N)[C@@H](C)O)C(C)C)C(C)C)C(=O)N[C@H](Cc1cnc[nH]1)C(=O)N[C@@H](CC(N)=O)C(=O)N[C@@H](Cc1ccccc1)C(=O)N[C@@H](CCCCN)C(=O)N[C@@H](CCCNC(=N)N)C(=O)N[C@@H](CCCCN)C(=O)O`, the Activity in assay [1] and in assay [2] was 105% in each case.
Consider `CC[C@H](C)[C@H](NC(=O)[C@H](Cc1ccccc1)NC(=O)[C@@H](NC(=O)[C@H](C)NC(=O)[C@H](CCSC)NC(=O)[C@H](CCC(N)=O)NC(=O)[C@H](C(C)C)N(C)C(=O)[C@H](C)NC(=O)[C@@H](N)[C@@H](C)O)C(C)C)C(=O)N[C@@H](Cc1cnc[nH]1)C(=O)N[C@@H](CC(N)=O)C(=O)N[C@@H](Cc1ccccc1)C(=O)N[C@@H](CCCCN)C(=O)N[C@@H](CCCNC(=N)N)C(=O)N[C@@H](CCCCN)C(=O)O` (H-TA[NMeV]QMAVFIHNFKRK-OH), for which the Activity in assay [1] was 110%; in assay [2], 118%.
On to `CC[C@H](C)[C@H](NC(=O)[C@H](Cc1ccccc1)NC(=O)[C@@H](NC(=O)[C@H](C)NC(=O)[C@H](CCSC)NC(=O)[C@H](CCC(N)=O)NC(=O)[C@@H](NC(=O)[C@H](C)NC(=O)[C@@H](N)[C@@H](C)O)C(C)C)C(C)C)C(=O)N[C@@H](Cc1cnc[nH]1)C(=O)N[C@@H](C)C(=O)N[C@@H](Cc1ccccc1)C(=O)N[C@@H](CCCCN)C(=O)N[C@@H](CCCNC(=N)N)C(=O)N[C@@H](CCCCN)C(=O)O` (H-TAVQMAVFIHAFKRK-OH), for which the Activity turned out to be 105% in assay [1] and 33% in assay [2].
On to `CC[C@H](C)[C@@H](C(=O)N[C@@H](Cc1cnc[nH]1)C(=O)N[C@@H](CC(N)=O)C(=O)N[C@@H](Cc1ccccc1)C(=O)N[C@@H](CCCCN)C(=O)N[C@@H](CCCNC(=N)N)C(=O)N[C@@H](CCCCN)C(=O)O)N(C)C(=O)[C@H](Cc1ccccc1)NC(=O)[C@@H](NC(=O)[C@H](C)NC(=O)[C@H](CCSC)NC(=O)[C@H](CCC(N)=O)NC(=O)[C@@H](NC(=O)[C@H](C)NC(=O)[C@@H](N)[C@@H](C)O)C(C)C)C(C)C` (H-TAVQMAVF[NMeI]HNFKRK-OH), for which the Activity came out at 107% in assay [1] and 123% in assay [2].
Take `CC[C@H](C)[C@H](NC(=O)[C@H](Cc1ccccc1)NC(=O)[C@@H](NC(=O)[C@H](C)NC(=O)[C@@H](CCSC)NC(=O)[C@H](CCC(N)=O)NC(=O)[C@@H](NC(=O)[C@H](C)NC(=O)[C@@H](N)[C@@H](C)O)C(C)C)C(C)C)C(=O)N[C@@H](Cc1cnc[nH]1)C(=O)N[C@@H](CC(N)=O)C(=O)N[C@@H](Cc1ccccc1)C(=O)N[C@@H](CCCCN)C(=O)N[C@@H](CCCNC(=N)N)C(=O)N[C@@H](CCCCN)C(=O)O`: the Activity in assay [1] is 196%; in assay [2] it was 127%.
In the same order, the values of `CC[C@H](C)[C@H](NC(=O)[C@H](Cc1ccccc1)N(C)C(=O)[C@@H](NC(=O)[C@H](C)NC(=O)[C@H](CCSC)NC(=O)[C@H](CCC(N)=O)NC(=O)[C@@H](NC(=O)[C@H](C)NC(=O)[C@@H](N)[C@@H](C)O)C(C)C)C(C)C)C(=O)N[C@@H](Cc1cnc[nH]1)C(=O)N[C@@H](CC(N)=O)C(=O)N[C@@H](Cc1ccccc1)C(=O)N[C@@H](CCCCN)C(=O)N[C@@H](CCCNC(=N)N)C(=O)N[C@@H](CCCCN)C(=O)O` (H-TAVQMAV[NMeF]IHNFKRK-OH) are 152% and 141%.
In the case of `CC[C@H](C)[C@H](NC(=O)[C@H](Cc1ccccc1)NC(=O)[C@@H](NC(=O)[C@H](C)NC(=O)[C@H](CCSC)NC(=O)[C@H](CCC(N)=O)NC(=O)[C@H](C)NC(=O)[C@H](C)NC(=O)[C@@H](N)[C@@H](C)O)C(C)C)C(=O)N[C@@H](Cc1cnc[nH]1)C(=O)N[C@@H](CC(N)=O)C(=O)N[C@@H](Cc1ccccc1)C(=O)N[C@@H](CCCCN)C(=O)N[C@@H](CCCNC(=N)N)C(=O)N[C@@H](CCCCN)C(=O)O` (H-TAAQMAVFIHNFKRK-OH), the results for the Activity in assay [1] and in assay [2] were 106% and 115%, respectively.
In the same order, the values of `CC[C@H](C)[C@H](NC(=O)[C@H](Cc1ccccc1)NC(=O)[C@@H](NC(=O)[C@H](C)NC(=O)[C@H](CCSC)NC(=O)[C@H](CCC(N)=O)NC(=O)[C@@H](NC(=O)[C@H](C)NC(=O)[C@@H](N)[C@@H](C)O)C(C)C)C(C)C)C(=O)N[C@@H](Cc1cnc[nH]1)C(=O)N[C@@H](CC(N)=O)C(=O)N[C@@H](Cc1ccccc1)C(=O)N[C@@H](C)C(=O)N[C@@H](CCCNC(=N)N)C(=O)N[C@@H](CCCCN)C(=O)O` (H-TAVQMAVFIHNFARK-OH) are 176% and 91%.
Turning to `CC[C@H](C)[C@H](NC(=O)[C@H](Cc1ccccc1)NC(=O)[C@@H](NC(=O)[C@H](C)NC(=O)[C@H](CCSC)NC(=O)[C@H](CCC(N)=O)NC(=O)[C@@H](NC(=O)[C@H](C)N(C)C(=O)[C@@H](N)[C@@H](C)O)C(C)C)C(C)C)C(=O)N[C@@H](Cc1cnc[nH]1)C(=O)N[C@@H](CC(N)=O)C(=O)N[C@@H](Cc1ccccc1)C(=O)N[C@@H](CCCCN)C(=O)N[C@@H](CCCNC(=N)N)C(=O)N[C@@H](CCCCN)C(=O)O` (H-T[NMeA]VQMAVFIHNFKRK-OH), the Activity was 86% in assay [1] and 75% in assay [2].
In the same order, the values of `CC[C@H](C)[C@H](NC(=O)[C@H](Cc1ccccc1)NC(=O)[C@@H](NC(=O)[C@H](C)NC(=O)[C@H](CCSC)NC(=O)[C@H](CCC(N)=O)NC(=O)[C@@H](NC(=O)[C@H](C)NC(=O)[C@@H](N)[C@@H](C)O)C(C)C)C(C)C)C(=O)N[C@@H](Cc1cnc[nH]1)C(=O)N[C@@H](CC(N)=O)C(=O)N[C@@H](C)C(=O)N[C@@H](CCCCN)C(=O)N[C@@H](CCCNC(=N)N)C(=O)N[C@@H](CCCCN)C(=O)O` (H-TAVQMAVFIHNAKRK-OH) are 193% and 134%.
In the same order, the values of `CSCC[C@H](NC(=O)[C@H](CCC(N)=O)NC(=O)[C@@H](NC(=O)[C@H](C)NC(=O)[C@@H](N)[C@@H](C)O)C(C)C)C(=O)N[C@@H](C)C(=O)N[C@H](C(=O)N[C@@H](Cc1ccccc1)C(=O)O)C(C)C` (H-TAVQMAVF-OH) are 0% and 0%.
In the same order, the values of `CC[C@H](C)[C@H](NC(=O)[C@H](Cc1ccccc1)NC(=O)[C@@H](NC(=O)[C@H](C)NC(=O)[C@H](CCSC)NC(=O)[C@H](CCC(N)=O)NC(=O)[C@@H](NC(=O)[C@H](C)NC(=O)[C@@H](N)[C@@H](C)O)C(C)C)C(C)C)C(=O)N[C@@H](Cc1cnc[nH]1)C(=O)N[C@@H](CC(N)=O)C(=O)O` (H-TAVQMAVFIHN-OH) are 0% and 0%.
Turning to `CC[C@H](C)[C@H](NC(=O)[C@H](Cc1ccccc1)NC(=O)[C@@H](NC(=O)[C@H](C)NC(=O)[C@H](CCSC)N(C)C(=O)[C@H](CCC(N)=O)NC(=O)[C@@H](NC(=O)[C@H](C)NC(=O)[C@@H](N)[C@@H](C)O)C(C)C)C(C)C)C(=O)N[C@@H](Cc1cnc[nH]1)C(=O)N[C@@H](CC(N)=O)C(=O)N[C@@H](Cc1ccccc1)C(=O)N[C@@H](CCCCN)C(=O)N[C@@H](CCCNC(=N)N)C(=O)N[C@@H](CCCCN)C(=O)O` (H-TAVQ[NMeM]AVFIHNFKRK-OH), the figures for the Activity in assay [1] and in assay [2] were 134% and 103%, respectively.
